Reference: a melting point compilation (Tetko et al.; mined from patent text by program, amines drawn as free bases though some values may be those of a salt)

melting point [°C]	SMILES
171 to 173	CCCCCCCCN1CC(C(=O)OC)N(S(=O)(=O)c2ccc(NC(=O)c3ccc(Cl)cc3)cc2)CC1=O (stereo not given)
227 to 228	Cc1cc(C(=O)O)n(-c2ncc(Cl)cc2Cl)n1
99 to 101	CC(C)c1nc(CN)n(C)c1Sc1cccc(Cl)c1
226 to 228	Cn1nc(O[C@@H]2c3cc([N+](=O)[O-])ccc3OC(CF)(CF)[C@H]2O)ccc1=O (relative stereo)
166 to 167	CSC(=S)N1Cc2[nH]c3ccccc3c2CC1CCO (stereo not given)
84 to 86	CCN(CC1CCCC1)c1nc2c(cc1CN(Cc1cc(C(F)(F)F)cc(C(F)(F)F)c1)c1nnn(C)n1)c(C)nn2C
68 to 72	CC(=O)OC1CSC(Oc2cccnc2-c2c(C)noc2C)C(OC(C)=O)C1OC(C)=O (stereo not given)
185	O=C(O)CCCSc1ccc(C(=O)O)cn1
197 to 198	O=C(NC1CCCCC1)NS(=O)(=O)c1ccc(CCNC(=O)N2CCc3ccccc3C2=O)cc1
71 to 77	Cc1cc(C2=C(C=CC3CC(O)CC(=O)O3)C(C)(C)CC(N3C(=O)CCC3=O)C2)ccc1F (stereo not given)
140	O=C(c1nc(-c2ccccc2)nc2ccccc12)N1CCCCCC1
212 to 220	CC12CC(NC(=O)OCC(Cl)(Cl)Cl)C3C(CCC4CC(O)CCC43C)C1CCC2C(=O)O (stereo not given)
83	O=C(C(Cl)Cl)N1CCCCCCC1
98 to 104	CCOC(=O)C1C(=O)NCC1CCc1ccc(C(=O)OCC(C)C)cc1 (stereo not given)
118	CCOC(=O)COc1cc(F)ccc1C(=S)NCc1cccc([N+](=O)[O-])c1
160 to 161	Cc1ccc(O)c(CNc2nc(NC[C@@H](C)O)nc3c2ncn3C(C)C)c1
201 to 204	COc1c(C=Cc2ccc(C=CC3=C(C#N)C(=C(C#N)C#N)OC3(C)C)s2)cc2c3c1CCCN3CCC2
155 to 157	O=C(O)CN1C(=O)C(=CCCCCl)SC1=S
130 to 133	CC(=O)Cc1c(C)nc2ccccc2c1N
170 to 172	CC(=O)c1cc([N+](=O)[O-])c(N)c2c1CCCC2
98	Cc1nc2cc3c(cc2c(=O)n1COC(=O)C(C)(C)C)C(Br)CC3 (stereo not given)
101 to 103	CCCC(C)S(=O)(=O)Nc1ccc(C(=O)CN2CCN(c3ccncc3)CC2)cc1 (stereo not given)

melting point [°C]	SMILES
176 to 177	COc1cccc(CC(=O)O)c1OCCCc1cn(-c2ccc(NS(C)(=O)=O)cn2)nc1C(C)C
> 200	Cc1cnc2c(c1)C(=O)c1nccc(Br)c1C2=O
229 to 231	CCC(=O)c1cc(Cl)c(Cl)c2c1OCC(C(=O)O)O2 (stereo not given)
121 to 124	O=S(c1ccc(/C=C/c2nc(CNc3ccc(CCCCn4ccnn4)cc3)co2)cc1)C(F)(F)F (stereo not given)
204 to 230	Nc1nc(O)c2c(n1)NCC(CCc1ccc(C(=O)N[C@@H](CCC(=O)O)C(=O)O)s1)C2 (stereo not given in full)
207 to 208	CCN(C(=O)c1cnc(N2CC(C)NC2=O)nc1N)c1cccc(C(F)(F)F)c1 (stereo not given)
143 to 145	Cn1ncnc1COc1nc2c(cc1-c1cccc(F)c1)nnn2-c1ccccc1F
193 to 195	CCCCc1ccc(-c2coc(C(=O)O)cc2=O)cc1
168 to 170	Cn1cc(C(=O)NCc2ccc(Cl)cc2)c(=O)c2cc(CN3CCOCC3)cc(C#CCCO)c21
155 to 158	CC(=O)Oc1cc(N2C(=O)CC(SC3CCCCC3)C2=O)ccc1C(=O)O (stereo not given)
254	CN1CCC(NC(c2cccc([N+](=O)[O-])c2)c2nc3ccccc3[nH]2)CC1 (stereo not given)
262 to 268	Nc1ncc(-c2ccc(=O)[nH]n2)c(-c2ccco2)n1
159 to 162	CO[C@H]1CCN(C(=O)c2cc(-c3ccccc3)c(=O)n3c2-c2sccc2C3)C1
229 to 230	Cc1ccc(-c2ccc3c(c2)C=C(C(=O)Nc2ccc(CN(C)C4CCOCC4)cc2)CCN3C=O)cc1
79	CSC(=S)C1(c2ccccn2)CCCCS1 (stereo not given)
152	CCOc1ccc([N+](=O)[O-])c(NN2CCOCC2)c1
129 to 131	COc1cc(C(=O)O)ccc1Cc1cn(CCC(N)=O)c2ccc(C(=O)NCC3CCCC3)cc12
240	O=C(NC1CCC1)c1cc([N+](=O)[O-])[nH]n1
116	CC12CCC(C(=Cc3ccc(CC(SSCC(=O)O)C(=O)O)cc3)C1=O)C2(C)C (stereo not given)
133 to 134	CN1CCCc2ccc(C(=O)CCC(=O)N3CCC(c4ccc(Cl)cc4)CC3)cc2C1
61 to 66	OC[C@@H](O)[C@@H](c1cccc(Br)c1)N1CCc2cccc(OCc3ccccc3)c21
> 250	Nc1ncnc2c1nc(COCP(=O)(O)O)n2CCC1CCCCC1

Second part, the molecule before the results:

SMILES	melting point [°C]
O=C(O)COc1ccc2c(-c3ccccc3F)csc2c1Cl	163 to 164
COC(=O)C1=CC=CC(C(=O)OC)(N(c2ccccc2)c2ccc(-c3ccc(N(c4ccccc4)C4(C(=O)OC)C=CC=C(C(=O)OC)C4)cc3)cc2)C1 (stereo not given)	136 to 141
O=c1[nH]cc(Cc2ccccc2)c2ccccc12	217 to 220
CC(=O)C1CCC2C3CCC4CC(O)(Cc5ccccc5)CCC4(C)C3CCC12C (stereo not given)	133 to 141
COc1cc2cc(CO)c(CO)c(-c3ccnc(-n4c(=O)cc(C(=O)O)c5ccccc54)c3)c2cc1OC	> 250
CCC(=O)Nc1cc(S(=O)c2ccccc2)ccc1NC(=NC(=O)OC)NC(=O)OC (stereo not given)	193 to 195
COc1cc(CN(C)c2ncc(C(=O)NO)cn2)cc(C(=O)Nc2ccc(Cl)c(-c3nc4cc(N(C)C)ccc4[nH]3)c2)c1	207 to 208
CCCCCCOc1ccccc1C(=NCCC(C)(C)C)NC#N	89 to 90
CCOC(=O)C1=C(C)NC(CO)=C(C(=O)OCC)C1c1ccccc1Cl (stereo not given)	143
Cn1nnnc1SCCl	55 to 57
COc1cscc1C(=O)NN	91 to 92
O=C(c1cccs1)N(CCCSc1ccncc1)c1ccccc1	66 to 67
O=S(=O)(Nc1ccc(Cl)cc1Oc1ccc(Cl)cc1Cl)C(F)(F)F	97 to 98
O=c1[nH]c2ccc3ccc(-n4cccc4CN4CCN(Cc5ccccc5)CC4)cc3c2[nH]c1=O	> 250
NS(=O)(=O)OCCCOc1ccc(-n2ccnc2)cc1	105 to 106
COc1ccc(-c2cc(C(C)(C)C)sc2-c2ccc(OC)cc2)cc1	112 to 115
COC(=O)/C=C/c1ccc(-c2ccc(C(C)C)cc2)s1	117 to 119
CC(=O)NC[C@H]1CN(c2ccc(-c3ccncc3)c(F)c2)C(=O)O1	179 to 180
CC(C)(C)c1nnc(NC(=O)CC(=O)CBr)s1	128 to 130

SMILES	melting point [°C]
CC(C)c1nc(C#N)c(C#N)[nH]1	146 to 149
CN(C)CCNC(=O)c1cccc(-c2cccc3cn(Cc4cccc(C(F)(F)F)c4)nc23)c1	102 to 103
COc1ccc2[nH]cc(S(=O)(=O)c3ccccc3)c2c1	151 to 155
O=[N+]([O-])c1cccc2c1CN(Cc1ccccc1)C2	77.5 to 78
COc1ccc(C=CC(=O)c2cccc(OCCCCBr)c2)cc1	91 to 92
CCOC(=O)CN(c1ccc(Cl)cc1C(O)c1ccccc1Cl)S(=O)(=O)c1ccc(OC)c(OC)c1 (stereo not given)	86
Nc1cccc2c1C(=O)N1CCC[C@H]1c1c(C(=O)OC3CCCCC3)ncn1-2	211 to 212
CC(C)(C#N)C1(c2ccc(Cl)cc2)CCC1	73 to 75
CSc1ccc(C(=O)c2c(C)sc3c2CCC3C(=O)O)cc1 (stereo not given)	131 to 133
COP(=O)(OC)C1OC(=O)c2ccccc21 (stereo not given)	95 to 96.5
CNc1sc(-c2cccnc2)nc1C(F)(F)F	152 to 157
Cc1cc(F)c(F)cc1O	68 to 70
CC(C)CCSc1cc(C(=O)O)cc(S(N)(=O)=O)c1-c1ccccc1	70 to 74
COc1ccc(OC)c(CCNC(=O)N(C)O)c1	73 to 74
CC1(C)C(C(=O)NC(=O)CN)C1(C)C	176
COC(=O)[C@H](CO)NC(=O)[C@H](Cc1ccccc1)NC(=O)OC(C)(C)C	90 to 93
Nc1nc(NCCc2ccc(Oc3nc(N)n4nc(-c5ccco5)nc4n3)cc2)nc2nc(-c3ccco3)nn12	186 to 190
COc1ncc(Cl)cc1C(O)C=Cc1ccc(Cl)cc1 (stereo not given)	135 to 140
COC(=O)c1sc(C)c2[nH]c(C(F)(F)C(F)(F)F)nc12	156 to 157

SMILES	melting point [°C]
CCCCCc1ccc(NC2=NCCS2)cc1	77 to 78
O=C1CC(c2cccc(-n3ccnc3)c2)=Nc2ccc(-c3cccc(F)c3)cc2N1	200 to 201
CSC(=C[N+](=O)[O-])NCCCCc1c[nH]cn1	157 to 158
CC1(C)O[C@H](CC#N)C[C@H](CC(=O)N(c2ccccc2)c2ccccc2)O1	98 to 100
CC(C)(CNc1ccnc2cc(Cl)ccc12)NCc1cccc(C(F)(F)F)c1	156 to 157
Cc1nn(Cc2ccccc2)c(C)c1CC(=O)O	119 to 121
CC(C)C(=O)NCc1ccc(NC(=O)/C=C/c2cnn(C)c2-c2ccc(F)cc2)cc1	258 to 259
CCOC(=O)c1c(-c2ccccc2)nc2ccccn12	68
C=CCOc1c(Cl)cc(C2=NNC(=O)CC2)cc1Cl	137
COC(=O)c1ccc(C(=O)Nc2ccc3ccc(Cl)nc3n2)cc1	275
COc1ccccc1C1=C(C#N)C(c2cccc3nonc23)c2c[nH]nc2N1 (stereo not given)	180
CCNC(=O)CCCNC(=O)CCCNC(=O)CCCNC(=O)OC(C)(C)C	170 to 171
C=CCN1Cc2cc(Br)ccc2C1=O	58 to 60
c1ccc(CCN2CCC(Nc3nc4ccccc4n3CCc3cccs3)CC2)cc1	118
CC(C)CC(CNOCc1ccccc1)C(=O)O (racemic)	73 to 75
O=C(CCC(=O)OC(=O)CCC(=O)OCc1ccccc1)OCc1ccccc1	70 to 71
CC(C)(C)OC(=O)N[C@@H]1C[C@H](CO)[C@@H](OC(=O)c2ccccc2)[C@H]1OC(=O)c1ccccc1	78 to 79
CC1(C)CCc2[nH]cc(C(=O)Nc3ccc4c(c3)OCO4)c2C1=O	251 to 252
